Laboratory results: patent US12329760B2, “Methods and compositions for targeting retinoic acid for solid tumor immunotherapy” (THE TRUSTEES OF THE UNIVERSITY OF PENNSYLVANIA, priority 2019, dated 2025)

System: MCAS cells
Experiment: RALDH3 expression in treated MCAS cells by RT-QPCR
Format: cell-based, murine
Details: for RALDH3 expression (relative to 18S): MCAS cells treated in vitro with cytokine, vs no Tx
Protocol: FIGS. 16A-16C show 1L13 and RALDH expression. FIG. 16A: MCAS cells were treated in vitro with indicated agents and RALDH3 expression (relative to 18S) measured by RT-QPCR. P<0.05 between no Tx and IL4 or IL13. N=3, repeated >5 times. FIG. 16B: IL13 and IL13Rα1 staining in murine UPS. FIG. 16C: Single cell suspension from MCAS tumors were fractionated into CD45+(Leukocytes) and CD45-fraction using miltenyi magnetic columns. RT-QPCR based measurement (relative to 18S) of IL13 and IL13Rα1 transcripts were performed on fractionated cells. P<0.01 for IL13. N=3, experiment repeated twice.
FIG. 20A: MCAS cells were treated with indicated compounds and RALDH3 expression (relative to 18S) measured by RT-QPCR. P<0.01 for DMSO vs. IL13. P<0.05 for IL13 vs. IL13+BMS493. FIG. 20B: Schematic of RALDH3 regulation by RA.
Aldefluor positive and negative cells were purified from murine fibrosarcomas and were transplanted into syngeneic B6 mice. Tumors derived from both types of cells generated both aldefluor positive and negative cells. This indicated the existence of an environmental signal in the TME that induces RA production in tumor cells. Th2 cytokines such as IL4 and IL13 can promote the differentiation of monocytes into either immunostimulatory DCs or immunosuppressive TAMS. Therefore, it was reasoned that tumors might induce RA production in the presence of IL4 or IL13 to block DC and promote TAM differentiation. To test this, MCAS cell lines were treated with cytokines promoting macrophage and DC differentiation and measured the expression of RALDH enzymes. […] IL13 and its receptor IL13Rα1 were also detected in murine sarcomas by IHC (FIG. 16B).

Row | Molecule | potency of RALDH3 induction, IL13 compared with IL4 (MCAS cells in vitro) | RALDH3 expression (relative to 18S)
1 | IL13: Th2 cytokine | more potent | induced the expression of RALDH3
2 | IL4: Th2 cytokine (protein, UniProt P05112 25-153, looked up) Interleukin-4: HKCDITLQEIIKTLNSLTEQKTLCTELTVTDIFAASKNTTEKETFCRAATVLRQFYSHHEKDTRCLGATAQQFHRHKQLIRFLKRLDRNLWGLAGLNSCPVKEANQSTLENFLERLKTIMREKYSKCSS |  | induced the expression of RALDH3
